Measured values from patent US20160222014A1, “COMPOUNDS FOR REGULATING FAK AND/OR SRC PATHWAYS” (ASANA BIOSCIENCES, LLC, priority 2013, published 2016).

Legend:
[1] = molecular target: T1, AURKB (Aurora B) enzyme (Homo sapiens, UniProt Q96GD4); test: Aurora B HTRF assay; type: biochemical; conditions: read-out: AuroraB IC50
T1 construct: purchased Invitrogen PVR 130
Method: AURKB (Aurora B) enzyme was obtained (Invitrogen, Cat No. PVR 130, Lot No. 857013J). A 8.64 μM stock was used at a final concentration 5 nM in the assay.
Lance@Ultera Ulight-PLK (Ser137) peptide substrate
Peptide substrate was obtained from Perkin Elmer (Lot#1629793, TRF0110-M). A 5 μM stock was used at a final concentration of 50 nM in the assay.
10 mM stock prepared freshly as above, used at a final concentration of 30 μM in assay.
The plate was covered with aluminum foil, put on a shaker and incubated 1 h at rt.
Reference: Pfizer aurora inhibitor PF-03814735 was procured from Selleckchem: Cat# S2725
Using stock Lance detection buffer, 1× Lance detection buffer was prepared. • 1. 10× lance detection buffer was diluted to 1×, mixed well and 100 μL was removed, and was used to substitute with antibody and EDTA (for a total of 2200 μL). • 2. 88 μL of […] EDTA was added from 500 mM stock. • 3. 14 μL Europium labeled antibody (LANCE@ Ultra EU-Anti-P-PLK(Ser 137), TRF0203-D, Lot No. 1630351, Perkin Elmer) was added from 625 nM stock; required concentration was 2 nM in the assay. • 4. The buffer well was mixed and 20 μL was transferred to the each well in the assay plate. • 5. The solutions were incubated for 1 h at rt. • 6. The plate was read using MET-HTRF® protocol using Pherastar equipment.

[2] = molecular target: T2, recombinant human FAK1 (Homo sapiens, UniProt Q05397); test: FAK1 HTRF assay; type: biochemical
T2 construct: fused on or other part: N-terminal 6xHis tag
Method: Active FAK1 was prepared for use in the Homogeneous Time-Resolved Fluorescence (HTRF) assay. Briefly, N-terminal 6 His tagged recombinant human FAK1, from residue 692-end (GenBank accession no. L13616) was expressed by Bacculovirus in sf9 cells. […] A 1.6 mg/mL (45 μM) stock was used in the HTRF assay at a final concentration of 10 nM.
Gastrin precursor (tyr87) biotinylated peptide which contains the residues surrounding tyrosine 87 (EEAY*GWM) of gastrin precursor was obtained (Cell Signaling Tech, Item no. 1310, Lot 7). The peptide was provided at a stock concentration of 6 μM, and used a final concentration of 0.5 μM in the HTRF assay.
10 mM stock in 100 μL Enzyme assay buffer pH7.4 was prepared freshly and used at a final concentration of 10 μM in the assay.
Powders were dissolved in 100% DMSO to a final stock concentration of 10 mM. The volume needed (in μL) to add for 10 mM=mg powder is 10^5/MW of compound. The final compound concentration in the assay plate started at 10 μM.
Pfizer FAK inhibitor PF-562271 (N-methyl-N-(3-(((2-((2-oxoindolin-5-yl)amino)-5-(trifluoromethyl)pyrimidin-4-yl)amino)methyl)pyridin-2-yl)methanesulfonamide) was prepared as per the reported procedure from US Patent Publication No. 2005/256145A1.
Streptavidin-Allophycocyanin was obtained (Prozyme, Cat. No. PJ25S. SA-APC was provided at a stock concentration of 2.06 mg/mL, where APC concentration was 11.6 μM and the streptavidin concentration was 15.5 μM. SA-APC was used at a final concentration of 12 nM in the assay (based on streptavidin concentration).
This reagent was obtained from Perkin ElmerAD0068. Europium-W1024-PT-66 Anti Phospho Tyrosine Ab is a monoclonal IgG1 that recognizes phospho tyrosine peptide. 100 μg/mL stock was used at a final concentration of 0.1 nM in the assay.
• 1. The compound dilutions were made by TECAN liquid handler as per the scheme in FIG. 1. • 2. 16 μL of diluted compound was added to each well of the assay plate using TECAN liquid handler. • 3. 20 μL of substrate mix (biotinylated gastrin precursor) was added into each well of the assay plate manually. • 4. 10 μL of enzyme mix (FAK1) was added to each well except mins. • 5. The plate was incubated at rt for 45 min with shaking. • 6. The HTRF mix was prepared and 75 μL was added to the HTRF plate. • 7. After the incubation was over, 10 μL of the mixture was transferred to the HTRF assay plate and incubated for 45 min at rt with shaking. • 8. The readings were taken in Pherastar in HTRF mode (ext 337 nm, em 665 & 620 nm) • 9. The results were analyzed using Graphpad Prism® software after calculation the z factor signal window and % inhibition. • 10. The IC50 was calculated.

T1 sequence (Q96GD4 whole entry): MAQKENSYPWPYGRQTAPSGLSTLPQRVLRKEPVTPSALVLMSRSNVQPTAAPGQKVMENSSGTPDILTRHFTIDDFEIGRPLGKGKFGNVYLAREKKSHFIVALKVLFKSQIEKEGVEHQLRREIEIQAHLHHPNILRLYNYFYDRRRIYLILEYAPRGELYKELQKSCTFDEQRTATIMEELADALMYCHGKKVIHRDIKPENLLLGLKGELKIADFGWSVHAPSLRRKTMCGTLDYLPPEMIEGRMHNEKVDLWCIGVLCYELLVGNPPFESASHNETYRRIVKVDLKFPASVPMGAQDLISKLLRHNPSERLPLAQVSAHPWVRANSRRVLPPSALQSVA
T2 sequence (Q05397 422-680 limits assumed): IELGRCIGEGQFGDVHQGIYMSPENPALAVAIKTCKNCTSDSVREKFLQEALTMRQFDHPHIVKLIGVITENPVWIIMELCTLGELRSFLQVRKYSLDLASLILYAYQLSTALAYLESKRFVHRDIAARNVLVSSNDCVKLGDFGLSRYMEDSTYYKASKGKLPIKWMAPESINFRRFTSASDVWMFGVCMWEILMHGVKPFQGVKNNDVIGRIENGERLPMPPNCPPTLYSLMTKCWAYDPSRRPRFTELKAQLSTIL

## Cc1nn(Cc2cccnc2N(C)S(C)(=O)=O)c2cc(Nc3ccc4c(c3)CCC(=O)N4)ncc12 [Example 69]
[1]
  IC50: > 1000 nM

## CC(=O)Nc1ccc(Nc2cc3c(cn2)cnn3Cc2ccccc2OC(F)F)nc1 [Example 73]
[1]
  IC50: > 1000 nM

## CC(=O)Nc1ccc(Nc2cc3c(cn2)cnn3Cc2ccccc2OC(F)F)cc1 [Example 75]
[1]
  IC50: > 1000 nM

## N#Cc1ccccc1S(=O)(=O)n1ccc2cnc(Nc3ccc4c(c3)CCC(=O)N4)nc21 [Example 115]
[1]
  IC50: < 20 nM
[2]
  IC50: < 20 nM

## CN(C)c1cccc(Nc2ncc3ccn(Cc4cccnc4N(C)S(C)(=O)=O)c3n2)c1 [Example 139]
[1]
  IC50: < 20 nM
[2]
  IC50: < 20 nM

## Nc1ccccc1S(=O)(=O)n1ccc2cnc(Nc3ccc4c(c3)CCC(=O)N4)nc21 [Example 164]
[1]
  IC50: < 20 nM

## CN(c1ncccc1Cn1ccc2cnc(Nc3cccc(CO)c3)nc21)S(C)(=O)=O [Example 166]
[1]
  IC50: < 20 nM

## CN(C)CCOc1cccc(Nc2ncc3ccn(S(=O)(=O)c4ccccc4C#N)c3n2)c1 [Example 173]
[1]
  IC50: < 20 nM

## CN(c1ncccc1Cn1ccc2cnc(Nc3ccc4nn[nH]c4c3)nc21)S(C)(=O)=O [Example 189]
[1]
  IC50: < 20 nM

## CN(C)S(=O)(=O)c1ccccc1Cn1ccc2cnc(Nc3ccc(N4CCNCC4)cc3)nc21 [Example 200]
[1]
  IC50: < 20 nM

## CN(c1ncccc1Cn1ccc2cnc(Nc3ccc4c(c3)C(C)(C)CC(=O)N4)nc21)S(C)(=O)=O [Example 211]
[1]
  IC50: < 20 nM
[2]
  IC50: < 20 nM

## CN(c1ncccc1Cn1ccc2cnc(Nc3ccc4c(c3)OCC(=O)N4)nc21)S(C)(=O)=O [Example 218]
[1]
  IC50: < 20 nM
[2]
  IC50: < 20 nM

## C[C@H]1CN(c2ccc(Nc3ncc4ccn(S(=O)(=O)c5cccc6cccnc56)c4n3)cc2)CCN1 [Example 230]
[1]
  IC50: < 20 nM
[2]
  IC50: < 20 nM

## O=S(=O)(c1cccc2cccnc12)n1ncc2cnc(Nc3ccc(N4CCNCC4)cc3)nc21 [Example 231, N-(4-(piperazin-1-yl)phenyl)-1-(quinolin-8-ylsulfonyl)-1H-pyrazolo[3,4-d]pyrimidin-6-amine]
[1]
  IC50: < 20 nM
[2]
  IC50: < 20 nM

## O=S(=O)(c1cccc2cccnc12)n1ccc2cnc(Nc3ccc(N4CCNCC4)cc3)cc21 [Example 321]
[1]
  IC50: < 20 nM
[2]
  IC50: < 20 nM

## O=S(=O)(c1cccc2cccnc12)n1ccc2cnc(Nc3ccc(N4CCNCC4)c(F)c3)cc21 [Example 323]
[1]
  IC50: < 20 nM
[2]
  IC50: < 20 nM

## C[C@H]1CNCCN1c1ccc(Nc2ncc3ccn(S(=O)(=O)c4cccc5cccnc45)c3n2)cc1 [Example 326]
[1]
  IC50: < 20 nM
[2]
  IC50: < 20 nM

## O=S(=O)(c1cccc2cccnc12)n1ccc2cnc(Nc3ccc(N4CCN(CCO)CC4)cc3)cc21 [Example 340]
[1]
  IC50: < 20 nM
[2]
  IC50: < 20 nM

## O=S(=O)(c1cccc2cccnc12)n1ccc2cnc(Nc3ccc(N4CCC(O)CC4)cc3)cc21 [Example 346]
[1]
  IC50: < 20 nM
[2]
  IC50: < 20 nM

## CN1CCN(c2ccc(Nc3cc4c(ccn4S(=O)(=O)c4cccc5cccnc45)cn3)cc2)CC1 [Example 353]
[1]
  IC50: < 20 nM
[2]
  IC50: < 20 nM

## Cc1ccc2cccc(S(=O)(=O)n3ccc4cnc(Nc5ccc(N6CCNCC6)cc5)nc43)c2n1 [Example 367]
[1]
  IC50: < 20 nM

## c1cnc2c(Cn3ccc4cnc(Nc5ccc(N6CCNCC6)cc5)nc43)cccc2c1 [Example 378]
[1]
  IC50: < 20 nM

## O=S(=O)(c1cccc2cccnc12)n1ccc2cnc(Nc3ccc4ncsc4c3)nc21 [Example 381]
[1]
  IC50: < 20 nM
[2]
  IC50: < 20 nM

## O=S(=O)(c1cccc2cccnc12)n1ccc2cnc(Nc3ccc(N4CCOCC4)cc3)nc21 [Example 389]
[1]
  IC50: < 20 nM
[2]
  IC50: < 20 nM

## Cc1cc(Nc2cc3c(ccn3S(=O)(=O)c3ccccc3C#N)cn2)ccc1N1CCNCC1 [Example 390]
[1]
  IC50: < 20 nM
[2]
  IC50: < 20 nM

## O=c1[nH]c2ccc(Nc3ncc4ccn(S(=O)(=O)c5cccc6cccnc56)c4n3)cc2[nH]1 [Example 395]
[1]
  IC50: < 20 nM
[2]
  IC50: < 20 nM

## CN(c1ncccc1CN1C(=O)Cc2cnc(Nc3ccc(N4CCC(O)CC4)cc3)nc21)S(C)(=O)=O [Example 404]
[1]
  IC50: > 1000 nM

## CC1(C)CN(S(=O)(=O)c2ccccc2C#N)c2nc(Nc3ccc(N4CCNCC4)cc3)ncc21 [Example 461]
[1]
  IC50: > 1000 nM

## CN(c1ccccc1Cn1ccc2cnc(Nc3ccc(N4CCC(N)CC4)cc3)nc21)S(C)(=O)=O [Example 463]
[1]
  IC50: < 20 nM

## C[C@@H]1CN(c2ccc(Nc3ncc4c(n3)N(S(=O)(=O)c3ccccc3C#N)CC4(C)C)cc2)CCN1 [Example 466]
[1]
  IC50: > 1000 nM

## C[C@@H]1CNCCN1c1ccc(Nc2ncc3ccn(Cc4ccccc4N(C)S(C)(=O)=O)c3n2)cc1 [Example 482]
[1]
  IC50: < 20 nM

## C[C@H]1CN(c2ccc(Nc3ncc4ccn(Cc5cccnc5N(C)S(C)(=O)=O)c4n3)cc2)CCN1C [Example 487]
[1]
  IC50: < 20 nM

## C[C@@H]1CN(C)CCN1c1ccc(Nc2ncc3ccn(Cc4ccccc4N(C)S(C)(=O)=O)c3n2)cc1 [Example 488]
[1]
  IC50: < 20 nM

## CN1CCN(c2ccc(Nc3ncc4c(n3)N(S(=O)(=O)c3cccc5cccnc35)CC4(C)C)cc2)CC1 [Example 498]
[1]
  IC50: > 1000 nM

## CC1(C)CN(S(=O)(=O)c2cccc3cccnc23)c2nc(Nc3ccc(N4CCNCC4)c(F)c3)ncc21 [Example 524]
[1]
  IC50: > 1000 nM

## N#Cc1ccccc1S(=O)(=O)n1ccc2cnc(Nc3ccc4c(c3)CC3CNCCN43)cc21 (stereo not shown) [Example 551]
[1]
  IC50: < 20 nM

## CN(c1ccccc1Cn1ccc2cnc(Nc3ccc(N4CCNC(C)(C)C4=O)cc3)nc21)S(C)(=O)=O [Example 552]
[1]
  IC50: < 20 nM

## C[C@H]1CN(c2ccc(Nc3ncc4c(n3)N(S(=O)(=O)c3cccc5cccnc35)CC4(C)C)cc2F)CCN1 [Example 554]
[1]
  IC50: > 1000 nM

## C[C@H]1CN(c2ccc(Nc3ncc4ccn(Cc5ccccc5N(C)S(C)(=O)=O)c4n3)cc2F)CCN1 [Example 557]
[1]
  IC50: < 20 nM

## C[C@H]1CNCCN1c1ccc(Nc2ncc3c(n2)N(S(=O)(=O)c2cccc4cccnc24)CC3(C)C)cc1 [Example 564]
[1]
  IC50: > 1000 nM

## CN(C)C1CCCN(c2ccc(Nc3ncc4ccn(Cc5ccccc5N(C)S(C)(=O)=O)c4n3)cc2)C1 (stereo not shown) [Example 598]
[1]
  IC50: < 20 nM

## CN(c1ccccc1Cn1ccc2cnc(Nc3ccc(N4CCNC(CO)C4)cc3)nc21)S(C)(=O)=O (stereo not shown) [Example 602]
[1]
  IC50: < 20 nM

## CN(C)C1CN(c2ccc(Nc3ncc4ccn(Cc5ccccc5N(C)S(C)(=O)=O)c4n3)cc2F)C1 [Example 608]
[1]
  IC50: < 20 nM

## CN(c1ccccc1Cn1ccc2cnc(Nc3ccc(C4CNCCN4)cc3)nc21)S(C)(=O)=O (stereo not shown) [Example 610]
[1]
  IC50: < 20 nM

## N#Cc1ccccc1S(=O)(=O)n1ccc2cnc(Nc3ccc(C4CNCCN4)cc3)cc21 (stereo not shown) [Example 614]
[1]
  IC50: < 20 nM

## C[C@H](O)CN1CCN(c2ccc(Nc3cc4c(ccn4S(=O)(=O)c4ccccc4C#N)cn3)cc2)CC1 [Example 631]
[1]
  IC50: < 20 nM

## Cc1cc(Nc2ncc3c(n2)N(S(=O)(=O)c2cccc4cccnc24)CC3(C)C)ccc1N1CCC(N(C)C)CC1 [Example 648]
[1]
  IC50: > 1000 nM

## C[C@H](O)CN1CCN(c2ccc(Nc3ncc4ccn(Cc5ccccc5N(C)S(C)(=O)=O)c4n3)cc2)C[C@H]1C [Example 692]
[1]
  IC50: < 20 nM
